Target: Macrophage metalloelastase (Mus musculus, UniProt P34960)
Test: Inhibitory activity against mouse macrophage metalloelastase (MME) using [3H]elastin as a substrate

Sequence of Macrophage metalloelastase (P34960 whole entry): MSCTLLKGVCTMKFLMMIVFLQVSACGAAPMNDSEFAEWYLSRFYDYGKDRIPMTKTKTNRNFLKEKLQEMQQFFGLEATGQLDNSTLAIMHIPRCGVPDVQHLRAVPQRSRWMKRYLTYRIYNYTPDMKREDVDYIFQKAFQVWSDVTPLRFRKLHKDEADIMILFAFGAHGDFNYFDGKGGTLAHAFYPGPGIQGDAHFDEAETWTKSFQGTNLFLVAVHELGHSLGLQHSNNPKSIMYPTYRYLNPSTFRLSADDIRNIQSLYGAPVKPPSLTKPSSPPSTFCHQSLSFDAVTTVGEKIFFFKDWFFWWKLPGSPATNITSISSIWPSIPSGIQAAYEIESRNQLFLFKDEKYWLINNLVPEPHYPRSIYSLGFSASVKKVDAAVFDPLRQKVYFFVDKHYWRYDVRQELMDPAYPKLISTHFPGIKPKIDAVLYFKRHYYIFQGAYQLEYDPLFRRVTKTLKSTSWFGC

Point of comparison: `COc1ccc(S(=O)(=O)N(Cc2ccccc2)C(C(=O)NO)C(C)C)cc1` (stereo not given), IC50 16 nM. Against it:
- COc1ccc(S(=O)(=O)N(Cc2ccccc2)[C@@H](C(=O)NO)c2ccccc2)cc1 — 1.9-fold higher, 31 nM
- COc1ccc(S(=O)(=O)N(Cc2ccccc2)[C@H](CC(C)C)C(=O)NO)cc1 — within 1.5-fold, 13 nM
- COc1ccc(S(=O)(=O)N(Cc2ccccc2)C(C)C(=O)NO)cc1 (stereo not given) — within 1.5-fold, 13 nM
- COc1ccc(S(=O)(=O)N(Cc2ccccn2)[C@@H](C(=O)NO)C(C)C)cc1 — 2.7-fold lower, 6 nM
- COc1ccc(S(=O)(=O)N(Cc2ccccc2)[C@@H](C(=O)NO)C(C)C)cc1 — 3.3-fold lower, 4.9 nM
- COc1ccc(S(=O)(=O)N(Cc2ccccc2)[C@H](C)C(=O)NO)cc1 — 1.7-fold lower, 9.6 nM
- COc1ccc(S(=O)(=O)N(Cc2ccccc2)[C@@H](C(=O)NO)C2CCNCC2)cc1 — higher, > 100 nM
- COc1ccc(S(=O)(=O)N(Cc2ccccn2)[C@H](C(=O)NO)C(C)C)cc1 — 2.3-fold higher, 37 nM
- CC[C@H](C)C[C@H](C(=O)NO)N(Cc1ccccc1)S(=O)(=O)c1ccc(OC)cc1 — the same, 16 nM
- CC[C@@H](C)C[C@H](C(=O)NO)N(Cc1ccccc1)S(=O)(=O)c1ccc(OC)cc1 — 3.3-fold lower, 4.8 nM
- COc1ccc(S(=O)(=O)N(Cc2ccccc2)[C@@H](C)C(=O)NO)cc1 — 2.2-fold higher, 35 nM
- COc1ccc(S(=O)(=O)N(Cc2ccccc2)[C@@H](C(=O)NO)C2CCCC2)cc1 — within 1.5-fold, 15 nM
- COc1ccc(S(=O)(=O)N(Cc2ccccn2)[C@H](CC(C)C)C(=O)NO)cc1 — 2.3-fold lower, 6.9 nM
- COc1ccc(S(=O)(=O)N(Cc2ccccc2)[C@H](CCCCNC(=O)Oc2ccccc2)C(=O)NO)cc1 — 4.2-fold higher, 67 nM
- COc1ccc(S(=O)(=O)N(Cc2cccnc2)[C@@H](C(=O)NO)C(C)C)cc1 [CGS-27023A] — 2.1-fold lower, 7.7 nM

Target: Macrophage metalloelastase (Mus musculus) (UniProt P34960)
Sequence (P34960 110-473 limits assumed): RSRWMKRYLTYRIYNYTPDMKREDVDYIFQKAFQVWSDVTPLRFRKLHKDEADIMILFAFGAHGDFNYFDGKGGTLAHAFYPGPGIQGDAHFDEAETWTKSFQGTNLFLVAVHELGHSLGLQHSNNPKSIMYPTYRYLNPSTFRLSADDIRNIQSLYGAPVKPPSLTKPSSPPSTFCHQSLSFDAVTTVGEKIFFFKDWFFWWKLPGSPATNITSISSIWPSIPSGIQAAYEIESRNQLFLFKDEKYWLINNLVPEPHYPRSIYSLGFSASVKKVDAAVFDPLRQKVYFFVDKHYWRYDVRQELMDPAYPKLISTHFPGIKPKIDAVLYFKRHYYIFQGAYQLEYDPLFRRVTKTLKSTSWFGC
Test: Inhibitory activity against mouse macrophage metalloelastase (MME) at 100 nM concentration using [3H]elastin as a substrate

Point of comparison: `COc1ccc(S(=O)(=O)N(CC(=O)NO)Cc2ccccc2)cc1`, inhibition 74%. Against it:
- CC(C)CN(CC(=O)NO)S(=O)(=O)c1ccc(N)cc1 — lower, 22%
- COc1ccc(S(=O)(=O)N(CC(=O)NO)Cc2ccc(-c3ccccc3)cc2)cc1 — higher, 86%
- COc1ccc(S(=O)(=O)N(CC(=O)NO)Cc2ccc(Cl)cc2)cc1 — higher, 76%
- COc1ccc(S(=O)(=O)N(CCc2ccccc2)CC(=O)NO)cc1 — higher, 88%
- CC(C)CN(CC(=O)NO)S(=O)(=O)c1ccc(N(C)C)cc1 — lower, 34%
- COc1ccc(S(=O)(=O)N(CC(=O)NO)C(C)C)cc1 — lower, 0%
- COc1ccc(S(=O)(=O)N(CC(=O)NO)Cc2cccnc2)cc1 — higher, 80%
- COc1ccc(S(=O)(=O)N(CC(=O)NO)CC(C)C)cc1 — lower, 70%
- COc1ccc(S(=O)(=O)N(CCCCc2ccccc2)CC(=O)NO)cc1 — higher, 83%
- Cc1ccc(S(=O)(=O)N(CC(=O)NO)CC(C)C)cc1 — lower, 56%
- COc1ccc(S(=O)(=O)N(CC(=O)NO)Cc2ccc(C)cc2)cc1 — higher, 82%
- CCOCCOc1ccc(S(=O)(=O)N(CC(=O)NO)CC(C)C)cc1 — lower, 69%
- COc1ccc(S(=O)(=O)N(CC(=O)NO)Cc2ccccn2)cc1 — higher, 88%
- COc1ccc(S(=O)(=O)N(CC(=O)NO)Cc2cccc(OC)c2)cc1 — higher, 75%
- COc1ccc(S(=O)(=O)N(CC(=O)NO)C2CCCCC2)cc1 — lower, 13%
- COc1ccc(S(=O)(=O)N(CC(=O)NO)Cc2ccc3ccccc3n2)cc1 — lower, 50%
- CC(C)CN(CC(=O)NO)S(=O)(=O)c1ccc(Cl)cc1 — lower, 68%
- CC(C)CN(CC(=O)NO)S(=O)(=O)c1ccccc1 — lower, 27%
- COc1ccc(S(=O)(=O)NCC(=O)NO)cc1 — lower, 0%
- COc1ccc(S(=O)(=O)N(CCC2CCCCC2)CC(=O)NO)cc1 — higher, 79%
- CCC(C)N(CC(=O)NO)S(=O)(=O)c1ccc(OC)cc1 (stereo not given) — lower, 35%
- COc1ccc(S(=O)(=O)N(CC(=O)NO)Cc2ccncc2)cc1 — higher, 92%
- CC(C)CN(CC(=O)NO)S(=O)(=O)c1ccc(F)cc1 — lower, 22%
- COc1ccc(CN(CC(=O)NO)S(=O)(=O)c2ccc(OC)cc2)cc1 — higher, 89%
- COc1ccc(S(=O)(=O)N(CCC(C)C)CC(=O)NO)cc1 — lower, 11%
- COc1ccc(S(=O)(=O)N(CC(=O)NO)CC2CCCCC2)cc1 — higher, 77%

Target: Macrophage metalloelastase (Mus musculus) (UniProt P34960)
Test: Inhibitory activity against mouse macrophage metalloelastase (MME) using [3H]elastin as a substrate; NI means no inhibition at 100 nM concentration

With `COc1ccc(S(=O)(=O)N(Cc2cccnc2)[C@@H](C(=O)NOCc2ccccc2)C(C)C)cc1` the inhibition was “No inhibition”.
With `COc1ccc(S(=O)(=O)N(Cc2cccnc2)[C@@H](C(=O)O)C(C)C)cc1` the inhibition was “No inhibition”.
